Tested on: F. oxysporum f. sp. cubense (Foc TR4)
Test: Panama disease analysis of soil samples after metam sodium field injection
Assay type: in vivo, Fusarium oxysporum f. sp. Cubense Tropical Race 4
Protocol: Metam Sodium Application. Metam sodium 510 SL (equivalent to 42% w/w) was applied to soil at the following doses: 0 liters per hectare (L/ha), 750 L/ha, 1500 L/ha, 2250 L/ha, 3000 L/ha.
Prior to injection, soil was prepared using a rototiller to break the soil structure from 0 cm to 80 cm deep, allowing for the smooth and even injection application by an injection machine. The soil was then leveled and made uniform, and the metam sodium was applied at two depths: 30 cm and 60 cm, using injection methods. The temperature was at a minimum of 10° C. and soil humidity was between 50 and 60% holding capacity, allowing the applied product to transform from metam sodium (liquid) to MITC (gas).
The application was made using an injection machine wherein the machine lowered shanks and began moving forward such that the shanks lowered to a depth of 60 cm and injectors applied the metam sodium into the soil. When the injection at 60 cm was complete, the process was repeated for the entire field at 30 cm. The treated soil in the field was then sealed using a packer roller (which was part of the injection machinery, located at the back end of the machine), after each application.
Soil Analysis. Soil samples were obtained at 20, 40, and 60 cm before application and every 24 hours beginning 48 hours after application, for seven days.
Plant Pathology Analysis. Soil samples used for Panama Disease and nematode analyses were aseptically isolated in culture medium and incubated for seven days at room temperature. Organisms were identified as follows: 20 grams of composite soil sample was diluted with 40 mL distilled water (dH2O); 1 drop of Tween 20 detergent was added, and the sample mixed. A 1 mL aliquot was taken from the solution and diluted with 9 mL dH2O; three further serial dilutions were made. From each dilution, 100 µL were spread on solid Komada growth medium (Sun et al., Phytopathology 68: 1672-1673, 1978). Growth could be seen 7 days after inoculation.

CNC(=S)[S-].[Na+] [metam sodium, sodium N-methyldithiocarbamate]
-: Panama Disease F. oxysporum f. sp. cubense (Day 3, 40 cm, T5 3000 L/ha) | Panama Disease F. oxysporum f. sp. cubense (Day 3, 60 cm, T2 750 L/ha) | Panama Disease F. oxysporum f. sp. cubense (Day 3, 60 cm, T3 1500 L/ha) | Panama Disease F. oxysporum f. sp. cubense (Day 3, 60 cm, T4 2250 L/ha) | Panama Disease F. oxysporum f. sp. cubense (Day 3, 60 cm, T5 3000 L/ha) | Panama Disease F. oxysporum f. sp. cubense (Day 4, 20 cm, T2 750 L/ha) | Panama Disease F. oxysporum f. sp. cubense (Day 4, 20 cm, T3 1500 L/ha) | Panama Disease F. oxysporum f. sp. cubense (Day 4, 20 cm, T4 2250 L/ha) | Panama Disease F. oxysporum f. sp. cubense (Day 4, 20 cm, T5 3000 L/ha) | Panama Disease F. oxysporum f. sp. cubense (Day 4, 40 cm, T2 750 L/ha) | Panama Disease F. oxysporum f. sp. cubense (Day 4, 40 cm, T3 1500 L/ha) | Panama Disease F. oxysporum f. sp. cubense (Day 4, 40 cm, T4 2250 L/ha) | Panama Disease F. oxysporum f. sp. cubense (Day 4, 40 cm, T5 3000 L/ha) | Panama Disease F. oxysporum f. sp. cubense (Day 4, 60 cm, T2 750 L/ha) | Panama Disease F. oxysporum f. sp. cubense (Day 4, 60 cm, T3 1500 L/ha) | Panama Disease F. oxysporum f. sp. cubense (Day 4, 60 cm, T4 2250 L/ha) | Panama Disease F. oxysporum f. sp. cubense (Day 4, 60 cm, T5 3000 L/ha) | Panama Disease F. oxysporum f. sp. cubense (Day 5, 20 cm, T2 750 L/ha) | Panama Disease F. oxysporum f. sp. cubense (Day 5, 20 cm, T3 1500 L/ha) | Panama Disease F. oxysporum f. sp. cubense (Day 5, 20 cm, T4 2250 L/ha) | Panama Disease F. oxysporum f. sp. cubense (Day 5, 20 cm, T5 3000 L/ha) | Panama Disease F. oxysporum f. sp. cubense (Day 5, 40 cm, T2 750 L/ha) | Panama Disease F. oxysporum f. sp. cubense (Day 5, 40 cm, T3 1500 L/ha) | Panama Disease F. oxysporum f. sp. cubense (Day 5, 40 cm, T4 2250 L/ha) | Panama Disease F. oxysporum f. sp. cubense (Day 5, 40 cm, T5 3000 L/ha) | Panama Disease F. oxysporum f. sp. cubense (Day 5, 60 cm, T2 750 L/ha) | Panama Disease F. oxysporum f. sp. cubense (Day 5, 60 cm, T3 1500 L/ha) | Panama Disease F. oxysporum f. sp. cubense (Day 5, 60 cm, T4 2250 L/ha) | Panama Disease F. oxysporum f. sp. cubense (Day 5, 60 cm, T5 3000 L/ha) | Panama Disease F. oxysporum f. sp. cubense (Day 6, 20 cm, T2 750 L/ha) | Panama Disease F. oxysporum f. sp. cubense (Day 6, 20 cm, T3 1500 L/ha) | Panama Disease F. oxysporum f. sp. cubense (Day 6, 20 cm, T4 2250 L/ha) | Panama Disease F. oxysporum f. sp. cubense (Day 6, 20 cm, T5 3000 L/ha) | Panama Disease F. oxysporum f. sp. cubense (Day 6, 40 cm, T2 750 L/ha) | Panama Disease F. oxysporum f. sp. cubense (Day 6, 40 cm, T3 1500 L/ha) | Panama Disease F. oxysporum f. sp. cubense (Day 6, 40 cm, T4 2250 L/ha) | Panama Disease F. oxysporum f. sp. cubense (Day 6, 40 cm, T5 3000 L/ha) | Panama Disease F. oxysporum f. sp. cubense (Day 6, 60 cm, T2 750 L/ha) | Panama Disease F. oxysporum f. sp. cubense (Day 6, 60 cm, T3 1500 L/ha) | Panama Disease F. oxysporum f. sp. cubense (Day 6, 60 cm, T4 2250 L/ha) | Panama Disease F. oxysporum f. sp. cubense (Day 6, 60 cm, T5 3000 L/ha) | Panama Disease F. oxysporum f. sp. cubense (Day 7, 20 cm, T2 750 L/ha) | Panama Disease F. oxysporum f. sp. cubense (Day 7, 20 cm, T3 1500 L/ha) | Panama Disease F. oxysporum f. sp. cubense (Day 7, 20 cm, T4 2250 L/ha) | Panama Disease F. oxysporum f. sp. cubense (Day 7, 20 cm, T5 3000 L/ha) | Panama Disease F. oxysporum f. sp. cubense (Day 7, 40 cm, T2 750 L/ha) | Panama Disease F. oxysporum f. sp. cubense (Day 7, 40 cm, T3 1500 L/ha) | Panama Disease F. oxysporum f. sp. cubense (Day 7, 40 cm, T4 2250 L/ha) | Panama Disease F. oxysporum f. sp. cubense (Day 7, 40 cm, T5 3000 L/ha) | Panama Disease F. oxysporum f. sp. cubense (Day 7, 60 cm, T2 750 L/ha) | Panama Disease F. oxysporum f. sp. cubense (Day 7, 60 cm, T3 1500 L/ha) | Panama Disease F. oxysporum f. sp. cubense (Day 7, 60 cm, T4 2250 L/ha) | Panama Disease F. oxysporum f. sp. cubense (Day 7, 60 cm, T5 3000 L/ha)
No Foc TR4 was detected: soil contamination: Foc TR4 detection (any of the treated groups (750-3000 L/ha), any day post application)
